Counter-ions that a name gives are not always drawn. Like-named read-outs stand apart in the source and are kept apart here.
Assays:
opiate receptors = assay: Test of Binding to the Opiate Receptor: inhibition of 3H-diprenorphine binding; parameters: species or system rat; details: up to 100 μM; 0.5 nM 3H-diprenorphine
[1] = system: mechanically provoked coughing; assay: Antitussive activity: mechanically provoked coughing in anaesthetised cats; assay type: in vivo, cat; details: for ED50: Felis catus, iv, read-out: ED50 after parallel adjustment (50% reduction in the number of coughs)
Experimental: The antitussive activity of the compound 6-(p-chlorobenzyl)-3,5,6-trimethyl-2H-3, 4, 5, 6-tetrahydro-oxazine (1,3)-hydrochloride was tested as follows:
33 male and female cats with a body weight of 3.4 to 4.5 kg were anaesthetised with pentobarbital-Na (45 mg/kg as an initial bolus i.p. and then, spread throughout the experiment, several times as required, 7.5 or 15 mg/kg i.v.). Care was taken to keep the animals at about stage 1 to 2 (Guedel) of the tolerance stage.
Coughing fits were provoked mechanically by the insertion of a plastic catheter with a rounded tip, diameter about 1.5 mm, into the trachea as far as the bifurcation. At each time of irritation, a series of 3 stimuli were carried out at intervals of about 30 seconds. The coughing fits were always provoked 5, 25 and 45 minutes after administration of the test substance or vehicle.
The test substance was administered as a solution in 0.9% NaCl solution through a catheter in the V. femoralis. The injected volume was not more than 0.5 ml/kg. Before administration of the substance, the effect of the vehicle was tested on each animal.
By linear regression analysis and linear covariance analysis, the ED50 value (50% reduction in the number of coughs) was determined after parallel adjustment (Table 2).

inhibition of 3H-diprenorphine binding (opiate receptors): no inhibition
SMILES: CC1CN(C)COC1(C)Cc1ccc(Cl)cc1 (stereo not drawn) [Active substance, 6-(p-chloro-benzyl)-3,5,6-trimethyl-2H-3,4,5,6-tetrahydro-oxazine(1,3)-hydrochloride]
Percentage inhibition of coughing, MW ± SE ([1]; 0.5 mg/kg i.v., after 5 minutes, n=5): 26.7 ± 8.5% | Percentage inhibition of coughing, MW ± SE ([1]; 0.5 mg/kg i.v., after 25 minutes, n=5): 16.7 ± 10.5% | Percentage inhibition of coughing, MW ± SE ([1]; 0.5 mg/kg i.v., after 45 minutes, n=5): 23.3 ± 10.0% | Percentage inhibition of coughing, MW ± SE ([1]; 0.705 mg/kg i.v., after 5 minutes, n=5): 23.3 ± 6.7% | Percentage inhibition of coughing, MW ± SE ([1]; 0.705 mg/kg i.v., after 25 minutes, n=5): 13.3 ± 6.2% | Percentage inhibition of coughing, MW ± SE ([1]; 0.705 mg/kg i.v., after 45 minutes, n=5): 13.3 ± 3.3% | Percentage inhibition of coughing, MW ± SE ([1]; 1.0 mg/kg i.v., after 5 minutes, n=5): 33.3 ± 18.3% | Percentage inhibition of coughing, MW ± SE ([1]; 1.0 mg/kg i.v., after 25 minutes, n=5): 40.0 ± 16.3% | Percentage inhibition of coughing, MW ± SE ([1]; 1.0 mg/kg i.v., after 45 minutes, n=5): 36.7 ± 3.3% | Percentage inhibition of coughing, MW ± SE ([1]; 1.41 mg/kg i.v., after 5 minutes, n=5): 63.3 ± 13.3% | Percentage inhibition of coughing, MW ± SE ([1]; 1.41 mg/kg i.v., after 25 minutes, n=5): 53.3 ± 16.2% | Percentage inhibition of coughing, MW ± SE ([1]; 1.41 mg/kg i.v., after 45 minutes, n=5): 50.0 ± 18.3% | Percentage inhibition of coughing, MW ± SE ([1]; 2.0 mg/kg i.v., after 5 minutes, n=5): 33.3 ± 17.5% | Percentage inhibition of coughing, MW ± SE ([1]; 2.0 mg/kg i.v., after 25 minutes, n=5): 53.3 ± 14.3% | Percentage inhibition of coughing, MW ± SE ([1]; 2.0 mg/kg i.v., after 45 minutes, n=5): 36.7 ± 17.0% | Percentage inhibition of coughing, MW ± SE ([1]; 2.83 mg/kg i.v., after 5 minutes, n=5): 36.7 ± 14.3% | Percentage inhibition of coughing, MW ± SE ([1]; 2.83 mg/kg i.v., after 25 minutes, n=5): 43.3 ± 13.5% | Percentage inhibition of coughing, MW ± SE ([1]; 2.83 mg/kg i.v., after 45 minutes, n=5): 40.0 ± 11.3% | Percentage inhibition of coughing, MW ± SE ([1]; 4.0 mg/kg i.v., after 5 minutes, n=5): 60.0 ± 11.3% | Percentage inhibition of coughing, MW ± SE ([1]; 4.0 mg/kg i.v., after 25 minutes, n=5): 63.3 ± 13.3% | Percentage inhibition of coughing, MW ± SE ([1]; 4.0 mg/kg i.v., after 45 minutes, n=5): 46.7 ± 9.7% | Percentage inhibition of coughing, MW ± SE ([1]; 5.64 mg/kg i.v., after 5 minutes, n=5): 70.0 ± 20.0% | Percentage inhibition of coughing, MW ± SE ([1]; 5.64 mg/kg i.v., after 25 minutes, n=5): 70.0 ± 20.0% | Percentage inhibition of coughing, MW ± SE ([1]; 5.64 mg/kg i.v., after 45 minutes, n=5): 63.3 ± 17.0% | Percentage inhibition of coughing, MW ± SE ([1]; 8.0 mg/kg i.v., after 5 minutes, n=3): 44.4 ± 29.4% | Percentage inhibition of coughing, MW ± SE ([1]; 8.0 mg/kg i.v., after 25 minutes, n=3): 50.0 ± 25.5% | Percentage inhibition of coughing, MW ± SE ([1]; 8.0 mg/kg i.v., after 45 minutes, n=3): 44.4 ± 20.0% | ED50 ([1]; 5 min, 5 minutes after administration): 2.6 mg/kg | ED50 ([1]; 25 min, 25 minutes after administration): 2.4 mg/kg | ED50 ([1]; 0.75 h, 45 minutes after administration): 3.2 mg/kg | effect on the number of mechanically provoked coughs ([1]; intravenously, 0.5 to 8 mg/kg): reducing the number of mechanically provoked coughs | cough-suppressing effect, doses and testing times at which observed ([1]; intravenously, 0.5 to 8 mg/kg, 5, 25 and 45 minutes): observed from the lowest administered dose upwards, at every testing time

From patent US5114935A, “Substituted 6-benzyl-2H-3,4,5,6-tetrahydro-(1,3)-oxazines” (Dr. Karl Thomae GmbH, priority 1989, dated 1992)
